Test results taken from patent US10954214B2 (Janssen Pharmaceutica NV, priority 2016, dated 2021).

Key:
[1] = system: IL6 secretion by OCI-LY3 ABC-DLBCL cells; assay: Human IL6 Mesoscale assay (OCI-LY3); type: cell-based; conditions: Homo sapiens, 24 h
Method in brief: (§1)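 Compounds tested from 15 μM to 58.6 nM (twofold, 9 concentrations) on 100,000 cells per well over 24 h at 37° C, without beta-mercaptoethanol. Secreted cytokine in supernatant detected by MSD electrochemiluminescence; scaling used DMSO as maximum and RN486 as full inhibition.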

TMD8 cells = assay: 4-day proliferation assay, TMD8; type: cell-based; conditions: Homo sapiens, 96 h, 4 days incubation, CellTiterGLO, read-out: Anti-proliferation: TMD-8 IC50
Method in brief: (§2)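 TMD8 and OCI-Ly3 cells were seeded at 10,000 per well and grown 4 days at 37° C, 5% CO2 without beta-mercaptoethanol. Viability was read by CellTiter-Glo luminescence. IC50 and Hill slope were fitted relative to the low control median.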

[2] = target: full-length MALT1 protein (Strep-MALT1(1-824)-His) (Homo sapiens (Human), UniProt Q9UDY8); assay: MALT1 Biochemical Protease Assay (Ac-LRSR-AMC substrate); conditions: 10 nM FL MALT1, 200 μM Ac-LRSR-AMC, 4 h at RT; read-out: MALT1_Biochemical activity (Ac-LRSR-amc) IC50
Sequence of full-length MALT1 protein (Strep-MALT1(1-824)-His) (Q9UDY8 whole entry): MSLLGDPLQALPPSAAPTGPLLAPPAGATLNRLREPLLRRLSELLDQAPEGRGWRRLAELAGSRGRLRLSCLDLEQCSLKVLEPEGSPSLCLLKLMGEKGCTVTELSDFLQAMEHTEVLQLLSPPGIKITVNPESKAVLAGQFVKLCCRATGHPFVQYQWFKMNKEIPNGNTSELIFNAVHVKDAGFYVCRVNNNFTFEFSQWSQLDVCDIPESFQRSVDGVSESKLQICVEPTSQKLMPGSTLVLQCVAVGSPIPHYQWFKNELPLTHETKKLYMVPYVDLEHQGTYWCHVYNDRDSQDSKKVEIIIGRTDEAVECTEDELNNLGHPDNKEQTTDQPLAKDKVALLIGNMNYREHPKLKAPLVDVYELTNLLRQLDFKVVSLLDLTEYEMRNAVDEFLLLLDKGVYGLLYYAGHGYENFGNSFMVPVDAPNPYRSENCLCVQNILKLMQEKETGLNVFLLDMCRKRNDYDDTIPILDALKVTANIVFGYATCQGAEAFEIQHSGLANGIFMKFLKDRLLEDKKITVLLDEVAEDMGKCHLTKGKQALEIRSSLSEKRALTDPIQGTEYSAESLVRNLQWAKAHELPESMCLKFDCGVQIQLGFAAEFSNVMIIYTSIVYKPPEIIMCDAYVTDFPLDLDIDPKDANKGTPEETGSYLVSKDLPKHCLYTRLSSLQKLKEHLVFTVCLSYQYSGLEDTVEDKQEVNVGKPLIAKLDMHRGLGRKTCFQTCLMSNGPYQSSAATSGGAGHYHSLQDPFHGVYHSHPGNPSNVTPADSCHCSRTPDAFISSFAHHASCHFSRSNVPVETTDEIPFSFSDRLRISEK
Method in brief: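 Full-length MALT1 pre-incubated with compounds (30 μM to 0.5 nM, 11 threefold steps) for 50 min at RT. After Ac-LRSR-AMC was added, the reaction ran 4 h at RT and AMC fluorescence was read. IC50 and Hill slope from curve fitting against no-enzyme and no-compound controls.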

[3] = system: IL10 secretion by OCI-LY3 ABC-DLBCL cells; assay: Human IL10 Mesoscale assay (OCI-LY3); type: cell-based; conditions: Homo sapiens, 24 h
Method in brief: as §1

OCI-Ly3 cells = assay: 4-day proliferation assay, OCI-Ly3; type: cell-based, human; conditions: Homo sapiens, 96 h, 4 days incubation, CellTiterGLO, read-out: Anti-proliferation: OCI-LY-3 IC50
Method in brief: as §2

[4] = system: IL10 secretion by TMD8 ABC-DLBCL cells; assay: Human IL10 Mesoscale assay (TMD-8); type: cell-based; conditions: Homo sapiens, TMD8; TMD-8 cells, 24 h
Method in brief: as §1

[5] = system: IL6 secretion by TMD8 ABC-DLBCL cells; assay: Human IL6 Mesoscale assay (TMD-8); type: cell-based; conditions: Homo sapiens, TMD8; TMD-8 cells, 24 h
Method in brief: as §1

SMILES	IC50 [1]	IC50 [2]	IC50 [3]	IC50 (OCI-Ly3 cells)	IC50 [4]	IC50 [5]	IC50 (TMD8 cells)
O=C(Nc1cc(Cl)c(-n2nccn2)cc1F)c1cnn(-c2cccc3c(=O)[nH]ccc23)c1C(F)(F)F [Cpd 172, N-(5-chloro-2-fluoro-4-(2H-1,2,3-triazol-2-yl)phenyl)-1-(1-oxo-1,2-dihydroisoquinolin-5-yl)-5-(trifluoromethyl)-1H-pyrazole-4-carboxamide]	204 nM	69 nM	158 nM	504 nM			4790 nM
Cn1nc(-c2ncc(NC(=O)c3cnn(-c4cccc5ncccc45)c3C(F)(F)F)cc2C#N)cc1N [Cpd 181, N-(6-(5-amino-1-methyl-1H-pyrazol-3-yl)-5-cyanopyridin-3-yl)-1-(quinolin-5-yl)-5-(trifluoromethyl)-1H-pyrazole-4-carboxamide]	141 nM	38 nM	110 nM	1500 nM			> 7940 nM
O=C(Nc1cnc(-n2nccn2)c(Cl)c1)c1cnn(-c2cccc3nccn23)c1C(F)(F)F [Cpd 193, N-(5-chloro-6-(2H-1,2,3-triazol-2-yl)pyridin-3-yl)-1-(imidazo[1,2-a]pyridin-5-yl)-5-(trifluoromethyl)-1H-pyrazole-4-carboxamide]	117 nM	41 nM	79 nM	521 nM			3630 nM
Cc1cc(-n2nccn2)c(C#N)cc1NC(=O)c1cnn(-c2cccc3c(=O)[nH]ccc23)c1C(F)(F)F [Cpd 446, N-(5-cyano-2-methyl-4-(2H-1,2,3-triazol-2-yl)phenyl)-1-(1-oxo-1,2-dihydroisoquinolin-5-yl)-5-(trifluoromethyl)-1H-pyrazole-4-carboxamide]	22 nM	32 nM	13 nM	1060 nM			> 20000 nM
Cc1nc(-c2ccn(C)n2)c(Cl)cc1NC(=O)c1cnn(-c2cccc3c(=O)[nH]ccc23)c1C(F)(F)F [Cpd 169, N-(5-chloro-2-methyl-6-(1-methyl-1H-pyrazol-3-yl)pyridin-3-yl)-1-(1-oxo-1,2-dihydroisoquinolin-5-yl)-5-(trifluoromethyl)-1H-pyrazole-4-carboxamide]	166 nM	72 nM	182 nM	1750 nM			8910 nM
N#Cc1cc(NC(=O)c2cnn(-c3cccc4ncccc34)c2C(F)(F)F)cnc1-n1cncn1 [Cpd 86, N-(5-cyano-6-(1H-1,2,4-triazol-1-yl)pyridin-3-yl)-1-(quinolin-5-yl)-5-(trifluoromethyl)-1H-pyrazole-4-carboxamide]		71 nM		780 nM	148 nM	37 nM	~11200 nM
O=C(Nc1cnc(-n2nccn2)c(Cl)c1)c1cnn(-c2nccc3ccccc23)c1C(F)(F)F [Cpd 57, N-(5-chloro-6-(2H-1,2,3-triazol-2-yl)pyridin-3-yl)-1-(isoquinolin-1-yl)-5-(trifluoromethyl)-1H-pyrazole-4-carboxamide]		43 nM		220 nM	85 nM	81 nM	~8910 nM
O=C(Nc1cnc(-c2nnco2)c(Cl)c1)c1cnn(-c2cncc3ccccc23)c1C(F)(F)F [Cpd 69, N-(5-Chloro-6-(1,3,4-oxadiazol-2-yl)pyridin-3-yl)-1-(isoquinolin-4-yl)-5-(trifluoromethyl)-1H-pyrazole-4-carboxamide]		60 nM		430 nM	63 nM	58 nM	~16200 nM
O=C(Nc1cnc(-n2nccn2)c(Cl)c1)c1cnn(-c2cccc3nnsc23)c1C(F)(F)F [Cpd 120, 1-(benzo[d][1,2,3]thiadiazol-7-yl)-N-(5-chloro-6-(2H-1,2,3-triazol-2-yl)pyridin-3-yl)-5-(trifluoromethyl)-1H-pyrazole-4-carboxamide]		30 nM		325 nM	85 nM	102 nM	1950 nM
N#Cc1cc(NC(=O)c2cnn(-c3cncc4ccccc34)c2C(F)(F)F)ccc1-n1ccnn1 [Cpd 62, N-(3-cyano-4-(1H-1,2,3-triazol-1-yl)phenyl)-1-(isoquinolin-4-yl)-5-(trifluoromethyl)-1H-pyrazole-4-carboxamide]		59 nM		230 nM	85 nM	112 nM	10000 nM
Nc1nccc(-c2ccc(NC(=O)c3cnn(-c4cncc5ccccc45)c3C(F)(F)F)cc2Cl)n1 [Cpd 58, N-(4-(2-Aminopyrimidin-4-yl)-3-chlorophenyl)-1-(isoquinolin-4-yl)-5-(trifluoromethyl)-1H-pyrazole-4-carboxamide]		141 nM		500 nM	288 nM	331 nM	4470 nM
COc1ncc(NC(=O)c2cnn(-c3cccc4ncccc34)c2C(F)(F)F)cc1C#N [Cpd 85, N-(5-cyano-6-methoxypyridin-3-yl)-1-(quinolin-5-yl)-5-(trifluoromethyl)-1H-pyrazole-4-carboxamide]		132 nM		1660 nM	120 nM	95 nM	> 20000 nM
COC(=O)c1ccc(NC(=O)c2cnn(-c3cccc4ncccc34)c2C(F)(F)F)cc1C#N [Cpd 313, methyl 2-cyano-4-(1-(quinolin-5-yl)-5-(trifluoromethyl)-1H-pyrazole-4-carboxamido)benzoate]		43 nM		939 nM	4170 nM	7240 nM	7940 nM

Compounds with a lower IC50 [2], results first:

IC50 [1]	IC50 [2]	IC50 [3]	IC50 (OCI-Ly3 cells)	IC50 [4]	IC50 [5]	SMILES	IC50 (TMD8 cells)
123 nM	15 nM	85 nM	295 nM			O=C(Nc1cnc(-n2nccn2)c(Cl)c1)c1cnn(-c2cccn3nccc23)c1C(F)(F)F [Cpd 197, N-(5-chloro-6-(2H-1,2,3-triazol-2-yl)pyridin-3-yl)-1-(pyrazolo[1,5-a]pyridin-4-yl)-5-(trifluoromethyl)-1H-pyrazole-4-carboxamide]	7410 nM
29 nM	15 nM	26 nM	432 nM			O=C(Nc1cnc(-c2ncco2)c(Cl)c1)c1cnn(-c2cccc3c(=O)[nH]ccc23)c1C(F)(F)F [Cpd 127, N-(5-chloro-6-(oxazol-2-yl)pyridin-3-yl)-1-(1-oxo-1,2-dihydroisoquinolin-5-yl)-5-(trifluoromethyl)-1H-pyrazole-4-carboxamide]	11200 nM
	28 nM		482 nM	49 nM	52 nM	NC(=O)c1cnn(-c2ncc(NC(=O)c3cnn(-c4cccc5ncccc45)c3C(F)(F)F)cc2Cl)n1 [Cpd 144, 2-(3-chloro-5-(1-(quinolin-5-yl)-5-(trifluoromethyl)-1H-pyrazole-4-carboxamido)pyridin-2-yl)-2H-1,2,3-triazole-4-carboxamide]	2570 nM
1660 nM	15 nM		1120 nM			Cn1c(=O)cc(-n2ncc(C(=O)Nc3cnc(-n4nccn4)c(Cl)c3)c2C(F)(F)F)c2ccccc21 [Cpd 419, N-(5-chloro-6-(2H-1,2,3-triazol-2-yl)pyridin-3-yl)-1-(1-methyl-2-oxo-1,2-dihydroquinolin-4-yl)-5-(trifluoromethyl)-1H-pyrazole-4-carboxamide]	5750 nM
	11 nM		650 nM	47 nM	68 nM	N#Cc1cc(NC(=O)c2cnn(-c3nccc4ccoc34)c2C(F)(F)F)cnc1-n1nccn1 [Cpd 99, N-(5-cyano-6-(2H-1,2,3-triazol-2-yl)pyridin-3-yl)-1-(furo[2,3-c]pyridin-7-yl)-5-(trifluoromethyl)-1H-pyrazole-4-carboxamide]	~3240 nM
	21 nM		414 nM	31 nM	45 nM	O=C(Nc1cnc(-n2ncc(CO)n2)c(Cl)c1)c1cnn(-c2cccc3ncccc23)c1C(F)(F)F [Cpd 136, N-(5-chloro-6-(4-(hydroxymethyl)-2H-1,2,3-triazol-2-yl)pyridin-3-yl)-1-(quinolin-5-yl)-5-(trifluoromethyl)-1H-pyrazole-4-carboxamide]	2290 nM
	8 nM		282 nM	178 nM	457 nM	N#Cc1cc(NC(=O)c2cnn(-c3ccnc4ccoc34)c2C(F)(F)F)cnc1-n1nccn1 [Cpd 150, N-(5-cyano-6-(2H-1,2,3-triazol-2-yl)pyridin-3-yl)-1-(furo[3,2-b]pyridin-7-yl)-5-(trifluoromethyl)-1H-pyrazole-4-carboxamide]	> 7940 nM
	25 nM		505 nM	39 nM	51 nM	O=C(Nc1cnc(-n2nccn2)c(Cl)c1)c1cnn(-c2nccn3nccc23)c1C(F)(F)F [Cpd 141, N-(5-chloro-6-(2H-1,2,3-triazol-2-yl)pyridin-3-yl)-1-(pyrazolo[1,5-a]pyrazin-4-yl)-5-(trifluoromethyl)-1H-pyrazole-4-carboxamide]	6030 nM
